Test [1] in a line: Carcass characteristics of steers, Composition versus Monensin (Example 3). The class given is in vivo. To be noted: Monensin 223 mg/head/day, Composition 500 ppm in total feed, treatments differ P < 0.05. On the procedure: The two groups were treated with Monensin (223 mg/head/day) and the Composition (500 ppm in total feed). Monensin is the antibiotic used in the industry as a standard to affect microbial populations in the rumen of the animals. The change in microbial populations in the rumen shifts the fermentation end products, which results in an improvement in the energy efficiency of the animal. By comparing the Composition to the industry standard, the effects due to changes in microbial populations can be deleted. Therefore, if differences were found between Monensin treated animals and the Composition treated animals, those differences would not arise from the antimicrobial effects, as both products inhibit the same type of bacteria (gram positive). The Composition was 40% cashew nut shell liquid, 12% castor oil and 48% expanded vermiculite. Dressing percent is the percentage of the carcass in relation to the total weight of the animal. Carcass quality grade goes from 1 to 9 to indicate, in increasing order, the amount of intramuscular fat. Meats with higher levels of intramuscular fat are more tender and, therefore, more expensive. Also, as the amount of energy found per unit of fat is twice as much as the amount of energy found per unit of carbohydrate and […], meats with more intramuscular fat are more energy dense than […]. […]

The conditions of test [2]: rats, supplemented vs non-supplemented animals; cited from earlier work.

Marks after values point to notes of the source that are not given here.

On to `CC[C@@]1([C@@H]2O[C@@H]([C@H]3O[C@@](O)(CO)[C@H](C)C[C@@H]3C)C[C@@H]2C)CC[C@H]([C@]2(C)CC[C@]3(C[C@H](O)[C@@H](C)[C@@H]([C@@H](C)[C@@H](OC)[C@H](C)C(=O)O)O3)O2)O1` [Monensin], for which, in test [1] (grade from 1 to 9, increasing intramuscular fat, steers fed from 322 kg to 617 kg), the Carcass quality grade was 3.18^a. In addition, in test [1] (steers fed from 322 kg to 617 kg live weight), the “Dressing percent (percentage of the carcass in relation to the total weight of the animal)” value is on record as 60^a percent.
For the compound `CCCCCCCCCCCCCCCc1cccc(O)c1C(=O)O` [anacardic acid], the “effects on feed efficiency” value in test [2] is listed as “no differences”.

The values are drawn from patent publication US10064907B2, “Process to improve feed efficiency and carcass characteristics of animals” (Oligo Basics Agroindustrial LTDA., priority 2012, dated 2018).
